# According to patent US5449814A, “Lignan analogues, methods of preparation thereof and anti-hyperlipemic agents” (Shionogi & Co., Ltd., priority 1991, dated 1995):
# Where two headings read alike, the source gives them in different places.
# Columns and labels:
# LDL = assay: Inhibitory effect on oxidative modification of LDL (copper-induced, TBA reactive substances); assay type: biochemical, New Zealand albino rabbits; settings: rabbit LDL 0.2 mg protein/ml, 0.5 μM Cu^2+, 37° C., 24 hours; read-out: Inhibition of LDL oxidation IC50
# Description: Inhibitory effect on oxidative modification of LDL
# According to the method by Kita et al. (Proc. Natl. Acad. Sci., U.S.A, Vol. 84, 5928 (1987)), the experiment was proceeded as follows.
# LDL was isolated from the blood of New Zealand albino rabbits fed with a diet containing 0.5% cholesterol for 3 weeks, and dissolved in phosphate-buffered physiological saline (final LDL concentration: 0.2 mg protein/ml). To this solution, each test compound in ethanol was added and then copper sulfate (final Cu^2+ concentration: 0.5 μM) was added thereto. The mixture was incubated at 37° C. for 24 hours.
# After incubation, the content of lipid peroxides in each solution was determined as thiobarbituric acid reactive substances (TBA reactive substances). Concentration for 50% inhibition (IC50) was obtained from a linear regression curve of concentration of a compound versus % inhibition of oxidative modification of LDL. To quantify TBA reactive substances, proteins were removed from the solution after incubation, and the supernatant was examined for the content of TBA reactive substances by TBA method.
# cholesterol in serum = assay: Hypocholesterolemic effect in cholesterol-fed mice; assay type: in vivo, Male ICR mice; settings: Mus musculus, po, 168 h, diet 1% cholesterol and 0.5% sodium cholate with 0.12% test compound, 7 days
# Description: Hypocholesterolemic effect
# Male ICR mice weighing 30 to 40 g were allowed to access to a diet containing 1% cholesterol and 0.5% sodium cholate supplemented with 0.12% of a test compound (no test compound in control group) ad libitum for 7 days. Then, the blood was taken and total cholesterol in serum was determined by the method of Allain (Clin. Chem., Vol. 20, 470 (1974)).
# Total amount of VLDL cholesterol and LDL cholesterol was obtained by subtracting HLD cholesterol from total cholesterol. HLD cholesterol was quantified by the method of Ash and Hentschel et al. (Clin. Chem., Vol. 24, 2180 (1978)).
# Hypocholesterolemic effect of a test compound was evaluated based on % reduction in cholesterol calculated using the equation shown below.
smiles,measurement,setting,value
"CCC(CC)C(=O)c1c(C(=O)OC)c(-c2ccc(OC)c(OC)c2)c2c(OC)c(OC)c(OC)cc2c1O [Example 4, 1-(3,4-Dimethoxyphenyl)-3-(2-ethyl-1-oxobutyl)-4-hydroxy-2-methoxycarbonyl-6,7,8-trimethoxynaphthalene]",IC50,LDL,650 nM
same,inhibition in vivo at 0.12 % in diet,"cholesterol in serum; serum, read-out: Total Chol. reduction (%)",28%
same,inhibition in vivo at 0.12 % in diet,"cholesterol in serum; total minus HDL cholesterol, read-out: (VLDL + LDL) Chol. reduction (%)",78%
